Experimental data reported in BindingDB's records for patent US12552798 (Henan Zhiwei Biomedicine Co., 2026).

What was measured:
Assay in all cases: BTK, BMX, EGFR and ITK Inhibitory Assay
[1] = target: Tyrosine-protein kinase BTK (Homo sapiens, UniProt Q06187)
Description: (§1) Kinase inhibitory activities of compounds were evaluated using the Enzyme-linked immunosorbent assay (ELISA). The kinase enzyme of BTK, BMX, EGFR and ITK were purchased from Carna Bioscience (Kobe, Japan). A total of 10 ng/mL antiphosphotyrosine (PY713) antibody (abcam, Cambridge Science Park, UK) was precoated in 96-well ELISA plates. The kinase enzymes in each reaction well were set to BTK (101.25 ng/mL), BMX (90 ng/mL), EGFR (90 ng/mL) or ITK (120 ng/mL) and incubated with indicated compounds in 1× reaction buffer (50 mmol/L HEPES pH 7.4, 20 mmol/L MgCl2, 0.1 mmol/L MnCl2, 1 mmol/L DTT) containing 20 μmol/L (the final concentration of substrate in ITK reaction was 30 μmol/L) substrate (NH2-ETVYSEVRK-biotin) at 25° C. for 1 h. Then, a total of 3 μmol/L ATP was added and the reaction was continued for 2 hrs. The products of reaction were transferred into 96-well ELISA plates containing antibody and incubated at 25° C. for 30 min. After incubation, the wells were washed with PBS and then incubated with horseradish peroxidase […]-conjugated streptavidin. The wells were visualized using 3,3′,5,5′-tetramethylbenzidine (TMB), and chromogenic reaction was ended with 2 mol/L H2SO4, the absorbance was read with a multimode plate reader (PerkinElmer, USA) at 450 nm. IC50 values and curve fits were obtained using Prism (GraphPad Software).

[2] = target: T1, Cytoplasmic tyrosine-protein kinase BMX (Homo sapiens, UniProt P51813)
T1 sequence (P51813 whole entry): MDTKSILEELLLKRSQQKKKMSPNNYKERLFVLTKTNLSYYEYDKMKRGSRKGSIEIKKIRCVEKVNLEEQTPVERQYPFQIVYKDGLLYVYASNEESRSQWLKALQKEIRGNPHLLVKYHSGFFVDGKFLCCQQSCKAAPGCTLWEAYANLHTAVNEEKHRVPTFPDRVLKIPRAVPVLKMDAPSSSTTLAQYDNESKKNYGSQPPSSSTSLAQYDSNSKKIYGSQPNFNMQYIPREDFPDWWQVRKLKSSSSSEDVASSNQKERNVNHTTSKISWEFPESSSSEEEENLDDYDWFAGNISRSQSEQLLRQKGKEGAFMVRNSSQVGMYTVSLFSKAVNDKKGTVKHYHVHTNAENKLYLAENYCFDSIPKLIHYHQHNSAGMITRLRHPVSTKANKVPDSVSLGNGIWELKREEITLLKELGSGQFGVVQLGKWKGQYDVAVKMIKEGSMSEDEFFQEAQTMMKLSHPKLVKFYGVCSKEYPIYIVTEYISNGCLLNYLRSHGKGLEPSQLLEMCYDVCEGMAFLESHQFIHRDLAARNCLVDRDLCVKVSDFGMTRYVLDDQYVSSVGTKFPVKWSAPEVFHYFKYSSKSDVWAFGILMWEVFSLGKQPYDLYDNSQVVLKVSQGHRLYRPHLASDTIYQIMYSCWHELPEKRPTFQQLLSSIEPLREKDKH
Description: as §1

[3] = target: Epidermal growth factor receptor (Homo sapiens, UniProt P00533)
Chain of Epidermal growth factor receptor (P00533 whole entry): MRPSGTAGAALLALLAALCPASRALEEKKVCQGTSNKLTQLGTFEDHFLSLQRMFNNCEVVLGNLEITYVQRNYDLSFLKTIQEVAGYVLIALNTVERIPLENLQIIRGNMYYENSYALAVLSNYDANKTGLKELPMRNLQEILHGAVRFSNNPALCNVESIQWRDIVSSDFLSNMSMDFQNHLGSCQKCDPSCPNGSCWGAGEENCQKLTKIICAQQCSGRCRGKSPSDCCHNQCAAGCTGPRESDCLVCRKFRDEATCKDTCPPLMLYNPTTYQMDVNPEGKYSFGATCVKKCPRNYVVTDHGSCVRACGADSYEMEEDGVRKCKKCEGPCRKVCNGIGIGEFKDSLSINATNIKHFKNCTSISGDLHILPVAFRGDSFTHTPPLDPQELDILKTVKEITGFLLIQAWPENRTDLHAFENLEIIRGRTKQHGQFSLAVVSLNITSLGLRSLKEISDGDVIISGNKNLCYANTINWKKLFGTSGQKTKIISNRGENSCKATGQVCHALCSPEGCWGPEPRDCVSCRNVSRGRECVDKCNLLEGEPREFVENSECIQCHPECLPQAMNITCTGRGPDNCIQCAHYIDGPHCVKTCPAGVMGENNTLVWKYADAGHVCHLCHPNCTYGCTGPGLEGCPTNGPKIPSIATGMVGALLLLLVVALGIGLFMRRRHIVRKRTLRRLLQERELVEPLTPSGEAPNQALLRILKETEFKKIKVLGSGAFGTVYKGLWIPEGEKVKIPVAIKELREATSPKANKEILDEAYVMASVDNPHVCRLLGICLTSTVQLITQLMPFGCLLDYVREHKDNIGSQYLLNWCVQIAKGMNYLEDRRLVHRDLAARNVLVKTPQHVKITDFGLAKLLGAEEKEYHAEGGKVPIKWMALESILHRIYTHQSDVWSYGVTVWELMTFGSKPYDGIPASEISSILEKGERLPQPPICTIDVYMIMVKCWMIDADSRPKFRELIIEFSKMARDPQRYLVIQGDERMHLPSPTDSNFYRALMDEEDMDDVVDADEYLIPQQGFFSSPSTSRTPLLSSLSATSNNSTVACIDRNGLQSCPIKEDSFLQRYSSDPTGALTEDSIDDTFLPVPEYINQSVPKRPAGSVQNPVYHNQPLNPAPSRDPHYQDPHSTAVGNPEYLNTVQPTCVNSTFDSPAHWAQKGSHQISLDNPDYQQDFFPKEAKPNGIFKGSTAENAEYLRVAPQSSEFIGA
Description: as §1

[4] = target: T2, Tyrosine-protein kinase ITK/TSK (Homo sapiens, UniProt Q08881)
T2 sequence (Q08881 whole entry): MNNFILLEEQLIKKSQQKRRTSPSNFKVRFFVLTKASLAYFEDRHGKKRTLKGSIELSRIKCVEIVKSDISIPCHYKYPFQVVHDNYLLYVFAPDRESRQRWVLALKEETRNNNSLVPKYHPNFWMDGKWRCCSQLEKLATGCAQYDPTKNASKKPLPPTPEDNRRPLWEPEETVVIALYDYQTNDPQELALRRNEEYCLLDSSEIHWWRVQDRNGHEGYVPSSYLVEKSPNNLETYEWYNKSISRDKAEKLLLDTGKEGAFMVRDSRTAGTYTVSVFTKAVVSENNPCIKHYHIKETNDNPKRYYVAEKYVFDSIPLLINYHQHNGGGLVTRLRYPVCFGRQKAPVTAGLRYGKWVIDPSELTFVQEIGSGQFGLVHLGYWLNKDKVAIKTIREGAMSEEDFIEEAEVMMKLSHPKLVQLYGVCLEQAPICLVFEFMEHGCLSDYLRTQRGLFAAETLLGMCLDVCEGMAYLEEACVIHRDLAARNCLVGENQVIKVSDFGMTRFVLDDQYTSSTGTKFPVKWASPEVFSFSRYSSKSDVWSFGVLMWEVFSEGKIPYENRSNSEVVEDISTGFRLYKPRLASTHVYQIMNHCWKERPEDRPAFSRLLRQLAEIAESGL
Description: as §1

Chain of Tyrosine-protein kinase BTK (Q06187 whole entry): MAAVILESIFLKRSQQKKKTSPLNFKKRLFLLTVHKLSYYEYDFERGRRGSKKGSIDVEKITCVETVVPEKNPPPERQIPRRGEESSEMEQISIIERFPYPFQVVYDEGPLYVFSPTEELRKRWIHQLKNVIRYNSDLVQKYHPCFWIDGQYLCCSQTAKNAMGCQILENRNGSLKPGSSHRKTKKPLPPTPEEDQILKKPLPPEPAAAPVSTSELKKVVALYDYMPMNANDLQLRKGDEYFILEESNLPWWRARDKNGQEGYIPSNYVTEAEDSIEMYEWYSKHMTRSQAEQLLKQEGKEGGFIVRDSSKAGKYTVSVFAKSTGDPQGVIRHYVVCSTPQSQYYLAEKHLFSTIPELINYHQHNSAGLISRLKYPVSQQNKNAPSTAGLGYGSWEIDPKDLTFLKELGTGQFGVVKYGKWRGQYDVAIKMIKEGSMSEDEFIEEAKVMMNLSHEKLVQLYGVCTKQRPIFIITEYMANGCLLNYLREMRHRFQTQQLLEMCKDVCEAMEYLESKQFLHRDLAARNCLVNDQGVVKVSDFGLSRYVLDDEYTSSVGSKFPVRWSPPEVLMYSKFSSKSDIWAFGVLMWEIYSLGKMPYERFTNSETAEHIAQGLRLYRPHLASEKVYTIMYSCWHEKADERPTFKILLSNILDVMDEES

Row | IC50 [1] | IC50 [2] | IC50 [3] | IC50 [4] | Structure (SMILES)
1 | 230 nM |  |  |  | CC#CC(=O)N1CC(C2CCNn3c2nc(-c2ccc(Oc4ccccc4)cc2)c3C(N)=O)C1 (stereo not given) [US12552798, Example 19]
2 | 8 nM | 70.3 nM | 3240 nM | 8650 nM | NC(=O)c1c(-c2ccc(Oc3ccccc3)cc2)nc2n1NCCC2C1CN(C(=O)/C=C/C(F)(F)F)C1 (stereo not given) [US12552798, Example 20]
